Laboratory results published in patent US20150087627A1, “COMBINATION OF KINASE INHIBITORS AND USES THEREOF” (Intellikine LLC, priority 2011, published 2015).
Read-outs that look alike come from different tables or passages of the source.

Assays:
Assay type in all cases: biochemical
PI3K γ (p110γ) = molecular target: T1, PI3K γ (p110γ) (Homo sapiens, UniProt P48736); test: PI 3-Kinase (human) HTRF assay, PI3K γ; details: read-out: PI3K γ IC50
T1 construct: purchased Upstate / Millipore Corporation
T1 sequence (P48736 whole entry): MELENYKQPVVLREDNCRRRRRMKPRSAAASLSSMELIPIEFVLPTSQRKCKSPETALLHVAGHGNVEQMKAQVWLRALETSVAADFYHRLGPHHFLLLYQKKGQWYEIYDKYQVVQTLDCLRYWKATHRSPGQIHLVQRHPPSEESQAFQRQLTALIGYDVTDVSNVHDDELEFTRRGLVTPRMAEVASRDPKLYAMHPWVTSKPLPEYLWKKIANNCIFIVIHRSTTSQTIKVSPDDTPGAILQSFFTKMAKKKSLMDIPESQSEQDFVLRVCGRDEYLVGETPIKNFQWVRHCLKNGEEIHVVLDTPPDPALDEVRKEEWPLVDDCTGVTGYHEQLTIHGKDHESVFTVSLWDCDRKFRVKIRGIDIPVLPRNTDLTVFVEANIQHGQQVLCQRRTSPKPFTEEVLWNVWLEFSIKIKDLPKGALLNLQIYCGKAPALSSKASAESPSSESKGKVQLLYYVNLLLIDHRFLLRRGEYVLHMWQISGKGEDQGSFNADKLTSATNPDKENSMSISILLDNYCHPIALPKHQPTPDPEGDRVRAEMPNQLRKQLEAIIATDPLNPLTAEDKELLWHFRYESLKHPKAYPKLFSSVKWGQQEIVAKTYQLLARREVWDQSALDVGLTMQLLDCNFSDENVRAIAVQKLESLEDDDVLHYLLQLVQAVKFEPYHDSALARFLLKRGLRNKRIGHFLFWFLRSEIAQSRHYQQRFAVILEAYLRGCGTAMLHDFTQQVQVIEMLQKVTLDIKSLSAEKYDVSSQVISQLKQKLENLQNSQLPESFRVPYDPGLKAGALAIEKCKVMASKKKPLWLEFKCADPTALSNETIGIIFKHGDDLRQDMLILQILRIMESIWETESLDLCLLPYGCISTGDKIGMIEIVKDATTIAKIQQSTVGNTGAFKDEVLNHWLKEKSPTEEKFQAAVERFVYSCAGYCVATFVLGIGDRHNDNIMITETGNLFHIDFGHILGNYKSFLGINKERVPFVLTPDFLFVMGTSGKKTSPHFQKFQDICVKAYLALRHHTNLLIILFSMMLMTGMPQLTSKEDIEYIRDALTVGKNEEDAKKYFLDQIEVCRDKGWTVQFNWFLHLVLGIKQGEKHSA

PI3K δ = molecular target: T2, PI3K δ (Homo sapiens, UniProt O00329); test: PI 3-Kinase (human) HTRF assay, PI3K δ; details: read-out: PI3K δ IC50
T2 construct: purchased Upstate / Millipore Corporation
T2 sequence (O00329 whole entry): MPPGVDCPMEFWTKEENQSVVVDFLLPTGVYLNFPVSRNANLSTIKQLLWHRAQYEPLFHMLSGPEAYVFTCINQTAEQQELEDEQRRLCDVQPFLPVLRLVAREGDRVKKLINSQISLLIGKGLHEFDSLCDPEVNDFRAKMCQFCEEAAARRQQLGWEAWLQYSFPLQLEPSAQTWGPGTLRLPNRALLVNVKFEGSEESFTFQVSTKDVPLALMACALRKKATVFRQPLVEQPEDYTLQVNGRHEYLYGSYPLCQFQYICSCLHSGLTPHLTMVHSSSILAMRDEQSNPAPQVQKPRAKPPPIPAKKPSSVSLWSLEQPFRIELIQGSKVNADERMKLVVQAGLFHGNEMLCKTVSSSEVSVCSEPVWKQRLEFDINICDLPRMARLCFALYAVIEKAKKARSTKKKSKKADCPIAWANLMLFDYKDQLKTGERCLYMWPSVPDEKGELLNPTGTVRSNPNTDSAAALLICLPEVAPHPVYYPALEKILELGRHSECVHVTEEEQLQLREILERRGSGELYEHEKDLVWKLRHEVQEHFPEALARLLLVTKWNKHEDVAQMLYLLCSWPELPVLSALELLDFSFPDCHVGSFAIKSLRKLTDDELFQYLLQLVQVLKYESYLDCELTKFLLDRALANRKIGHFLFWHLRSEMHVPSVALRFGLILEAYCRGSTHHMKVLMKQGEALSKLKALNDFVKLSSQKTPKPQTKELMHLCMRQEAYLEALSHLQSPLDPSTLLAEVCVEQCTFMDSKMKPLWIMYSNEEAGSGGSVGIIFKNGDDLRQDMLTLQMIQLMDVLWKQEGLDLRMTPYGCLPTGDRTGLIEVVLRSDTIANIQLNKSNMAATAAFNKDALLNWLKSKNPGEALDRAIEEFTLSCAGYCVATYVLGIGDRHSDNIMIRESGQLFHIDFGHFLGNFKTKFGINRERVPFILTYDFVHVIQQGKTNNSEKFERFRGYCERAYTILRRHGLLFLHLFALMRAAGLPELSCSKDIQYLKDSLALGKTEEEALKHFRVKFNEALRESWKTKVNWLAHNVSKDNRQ
T2 sequence (P27986 whole entry partner): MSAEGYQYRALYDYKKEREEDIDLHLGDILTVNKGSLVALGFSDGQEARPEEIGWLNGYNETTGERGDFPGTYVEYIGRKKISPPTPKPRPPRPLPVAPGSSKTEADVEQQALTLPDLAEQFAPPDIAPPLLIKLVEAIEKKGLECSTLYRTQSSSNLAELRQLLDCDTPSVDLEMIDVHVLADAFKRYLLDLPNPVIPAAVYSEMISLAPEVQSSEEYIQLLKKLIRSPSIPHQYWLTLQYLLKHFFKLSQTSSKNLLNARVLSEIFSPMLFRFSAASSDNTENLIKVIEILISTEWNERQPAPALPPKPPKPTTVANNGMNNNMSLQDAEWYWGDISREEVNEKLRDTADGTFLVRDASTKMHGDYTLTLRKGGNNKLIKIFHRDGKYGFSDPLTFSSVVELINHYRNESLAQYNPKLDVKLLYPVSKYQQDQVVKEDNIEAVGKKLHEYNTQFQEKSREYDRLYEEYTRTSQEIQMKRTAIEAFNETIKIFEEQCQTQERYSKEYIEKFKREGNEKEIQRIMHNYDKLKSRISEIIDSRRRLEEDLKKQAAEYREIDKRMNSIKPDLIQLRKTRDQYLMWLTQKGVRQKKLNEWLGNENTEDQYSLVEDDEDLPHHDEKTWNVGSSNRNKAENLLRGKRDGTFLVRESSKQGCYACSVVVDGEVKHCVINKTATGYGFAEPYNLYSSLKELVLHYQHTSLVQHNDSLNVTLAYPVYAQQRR

PI3K α (p110α/p85α) = molecular target: T3, PI3K α (p110α/p85α) (Homo sapiens, UniProt P42336); test: PI 3-Kinase (human) HTRF assay, PI3K α; details: read-out: PI3K α IC50
T3 construct: purchased Upstate / Millipore Corporation
T3 sequence (P42336 whole entry): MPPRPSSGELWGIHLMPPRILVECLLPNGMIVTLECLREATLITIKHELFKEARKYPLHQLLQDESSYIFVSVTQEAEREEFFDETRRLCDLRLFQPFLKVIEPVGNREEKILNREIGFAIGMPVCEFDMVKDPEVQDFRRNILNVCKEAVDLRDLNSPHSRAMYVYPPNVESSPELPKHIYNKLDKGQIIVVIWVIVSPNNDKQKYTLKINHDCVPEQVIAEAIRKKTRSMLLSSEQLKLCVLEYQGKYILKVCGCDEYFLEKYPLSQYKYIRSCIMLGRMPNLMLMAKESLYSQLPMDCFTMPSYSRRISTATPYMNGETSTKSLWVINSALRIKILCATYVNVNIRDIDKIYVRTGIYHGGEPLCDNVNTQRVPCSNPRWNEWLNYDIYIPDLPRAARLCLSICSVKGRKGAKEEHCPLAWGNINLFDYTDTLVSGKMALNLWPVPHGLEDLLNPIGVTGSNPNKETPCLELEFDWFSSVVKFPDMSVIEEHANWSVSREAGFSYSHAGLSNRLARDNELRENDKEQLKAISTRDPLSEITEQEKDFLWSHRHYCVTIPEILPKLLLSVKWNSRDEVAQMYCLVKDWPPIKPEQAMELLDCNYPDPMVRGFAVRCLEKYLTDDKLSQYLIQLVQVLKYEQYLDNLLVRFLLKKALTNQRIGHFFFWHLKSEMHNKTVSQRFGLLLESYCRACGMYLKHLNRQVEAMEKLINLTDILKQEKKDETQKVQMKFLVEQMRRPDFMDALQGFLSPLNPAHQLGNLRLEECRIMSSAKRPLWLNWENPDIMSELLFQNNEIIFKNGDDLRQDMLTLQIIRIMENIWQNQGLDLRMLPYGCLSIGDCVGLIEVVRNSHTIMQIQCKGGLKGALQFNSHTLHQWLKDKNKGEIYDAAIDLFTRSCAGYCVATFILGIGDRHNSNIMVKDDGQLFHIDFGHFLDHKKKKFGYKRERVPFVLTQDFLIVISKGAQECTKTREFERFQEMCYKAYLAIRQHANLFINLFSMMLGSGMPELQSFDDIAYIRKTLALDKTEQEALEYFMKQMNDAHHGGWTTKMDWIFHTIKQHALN
T3 sequence (P27986 whole entry partner): as the sequence (P27986 whole entry partner) above

PI3K β (p110β/p85α) = molecular target: T4, PI3K β (p110β/p85α) (Homo sapiens, UniProt P42338); test: PI 3-Kinase (human) HTRF assay, PI3K β; details: read-out: PI3K β IC50
T4 construct: purchased Upstate / Millipore Corporation
T4 sequence (P42338 whole entry): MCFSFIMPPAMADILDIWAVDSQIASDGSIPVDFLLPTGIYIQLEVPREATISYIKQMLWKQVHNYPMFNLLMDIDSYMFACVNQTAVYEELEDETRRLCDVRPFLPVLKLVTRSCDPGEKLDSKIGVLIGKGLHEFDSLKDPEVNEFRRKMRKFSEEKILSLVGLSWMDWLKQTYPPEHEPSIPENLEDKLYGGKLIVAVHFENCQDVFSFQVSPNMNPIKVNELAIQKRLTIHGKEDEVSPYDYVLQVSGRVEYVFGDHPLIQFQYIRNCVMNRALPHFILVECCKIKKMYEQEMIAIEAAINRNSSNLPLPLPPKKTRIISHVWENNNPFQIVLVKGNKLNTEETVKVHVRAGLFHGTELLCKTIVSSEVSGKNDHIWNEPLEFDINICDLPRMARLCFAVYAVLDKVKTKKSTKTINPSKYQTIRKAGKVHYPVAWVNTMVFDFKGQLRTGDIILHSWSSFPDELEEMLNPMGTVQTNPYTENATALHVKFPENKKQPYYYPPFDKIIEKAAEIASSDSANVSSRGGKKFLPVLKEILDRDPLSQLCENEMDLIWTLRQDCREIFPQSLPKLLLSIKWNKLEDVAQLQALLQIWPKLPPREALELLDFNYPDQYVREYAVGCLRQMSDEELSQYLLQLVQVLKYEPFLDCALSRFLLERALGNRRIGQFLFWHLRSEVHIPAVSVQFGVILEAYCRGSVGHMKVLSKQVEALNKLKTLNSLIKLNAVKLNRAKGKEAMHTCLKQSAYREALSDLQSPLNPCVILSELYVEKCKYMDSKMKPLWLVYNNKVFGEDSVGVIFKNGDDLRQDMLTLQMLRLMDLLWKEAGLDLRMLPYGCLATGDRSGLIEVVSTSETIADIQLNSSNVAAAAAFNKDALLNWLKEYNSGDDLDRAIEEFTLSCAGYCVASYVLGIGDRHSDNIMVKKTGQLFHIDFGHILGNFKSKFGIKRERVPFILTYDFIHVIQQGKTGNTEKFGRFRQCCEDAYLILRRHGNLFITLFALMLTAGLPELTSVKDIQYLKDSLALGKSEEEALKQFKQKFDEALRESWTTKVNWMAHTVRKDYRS
T4 sequence (P27986 whole entry partner): as the sequence (P27986 whole entry partner) above

Row | SMILES | IC50 (PI3K γ (p110γ)) [µM] | IC50 (PI3K δ) [µM] | IC50 (PI3K β (p110β/p85α)) [µM] | IC50 (PI3K γ (p110γ); Table 4 (PI3K α inhibitors)) [µM] | IC50 (PI3K α (p110α/p85α); Table 4 (PI3K α inhibitors)) [µM] | IC50 (PI3K β (p110β/p85α); Table 4 (PI3K α inhibitors)) [µM] | IC50 (PI3K δ; Table 4 (PI3K α inhibitors)) [µM] | IC50 (PI3K α (p110α/p85α)) [µM]
1 | Nc1nsc2ccc(-c3ccc4nccc(-c5ccncc5)c4c3)cc12 [Compound 12] | > 10 | > 10 | > 10 |  |  |  |  | > 10
2 | Nc1nc2cc(-c3cc4nccc(-c5ccncc5)c4s3)ccc2o1 [Compound 14] | < 10 | > 10 | > 10 |  |  |  |  | < 10
3 | Nc1nc2cccc(-c3ccc4nccc(-c5ccncc5)c4c3)c2s1 [Compound 17] | < 0.1 | < 1 | < 1 |  |  |  |  | < 0.1
4 | Nc1noc2ccc(-c3ccc4nccc(-c5ccncc5)c4c3)cc12 [Compound 18] | < 10 | > 10 | > 10 |  |  |  |  | < 10
5 | CC(=O)Nc1cn2cc(-c3ccc4nccc(-c5ccncc5)c4c3)ccc2n1 [Compound 19] | > 10 | > 10 | > 10 |  |  |  |  | > 10
6 | CN1CCN(c2ccnc3ccc(-c4ccc5oc(N)nc5c4)cc23)CC1 [Compound 21] | < 10 | < 10 | < 10 |  |  |  |  | < 1
7 | CN1CCN(c2ncnc3ccc(-c4ccc5oc(N)nc5c4)cc23)CC1 [Compound 23] | < 0.1 | < 10 | < 1 |  |  |  |  | < 0.1
8 | Nc1nc2cc(-c3ccc4ncnc(NC5CCOCC5)c4c3)ccc2o1 [Compound 24] | < 0.1 | < 0.1 | < 1 |  |  |  |  | < 0.1
9 | Nc1nc2cc(-c3c[nH]c4nccc(-c5ccncc5)c34)ccc2o1 [Compound 25] | < 10 | > 10 | > 10 |  |  |  |  | < 10
10 | CN1CCN(c2cc(-c3ccnc4ccc(-c5ccc6oc(N)nc6c5)cc34)ccn2)CC1 [Compound 30] | < 0.1 | < 0.1 |  |  |  |  |  | < 0.1
11 | Nc1nc2cc(-c3ccc4nccc(-c5cccnc5)c4c3)ccc2o1 [Compound 31] | < 0.1 | < 0.1 |  |  |  |  |  | < 0.1
12 | Nc1nc2cc(-c3ccc4nccc(NC5CCOCC5)c4c3)ccc2o1 [Compound 32] | < 10 | > 10 |  |  |  |  |  | < 10
13 | Nc1nc2cc(-c3ccc4nccc(NCCN5CCOCC5)c4c3)ccc2o1 [Compound 33] | < 1 | < 1 |  |  |  |  |  | < 0.1
14 | CN1CCC(Oc2ncnc3ccc(-c4ccc5oc(N)nc5c4)cc23)CC1 [Compound 34] | < 1 | < 1 |  |  |  |  |  | < 0.1
15 | Nc1nc2cc(-c3ccc4ncc(-c5cn[nH]c5)n4c3)ccc2o1 [Compound 38] | < 0.1 | < 0.1 |  |  |  |  |  | < 0.1
16 | CN1CCN(c2cc(-c3cnc4ccc(-c5ccc6oc(N)nc6c5)cn34)ccn2)CC1 [Compound 43] | < 0.1 | < 0.1 |  |  |  |  |  | < 0.1
17 | Nc1nc2cc(-c3ccc4ncc(-c5ccc(N6CCOCC6)nc5)n4c3)ccc2o1 [Compound 51] | < 1 | < 1 | < 1 |  |  |  |  | < 0.1
18 | Nc1nc2cc(-c3ccc4ncc(N5CCOCC5)n4c3)ccc2o1 [Compound 53] | > 10 | > 10 | > 10 |  |  |  |  | < 10
19 | Nc1nc2cc(-c3ccc4ncc(-c5cccnc5)n4n3)ccc2o1 [Compound 58] | < 0.1 | < 0.1 | < 0.1 |  |  |  |  | < 0.1
20 | Nc1nc2ccc(-c3ccc4ncn(C5CCOCC5)c(=O)c4c3)cc2o1 [Compound 63] | > 10 | > 10 | > 10 |  |  |  |  | < 10
21 | Cc1ncc(-c2ccc3ncc(C(=O)N4C5CCC4COC5)n3c2)c2cn[nH]c12 [Compound 538] | > 10 |  | > 10 |  |  |  |  | < 0.1
22 | C[C@H]1CN(C2CN(c3cnc4ccc(-c5ccc6oc(N)nc6c5)nc4n3)C2)CCN1C [Compound 572] |  |  |  | > 10 | < 0.1 | > 10 |  | 
23 | CC(C)N1CCN(C2CN(c3cnc4ccc(-c5ccc6oc(N)nc6c5)nc4n3)C2)CC1 [Compound 628] |  |  |  | > 10 |  | > 10 | > 10 | 

Continued, in another order:

Row | IC50 (PI3K γ (p110γ)) [µM] | IC50 (PI3K δ) [µM] | IC50 (PI3K β (p110β/p85α)) [µM] | IC50 (PI3K γ (p110γ); Table 4 (PI3K α inhibitors)) [µM] | IC50 (PI3K α (p110α/p85α); Table 4 (PI3K α inhibitors)) [µM] | IC50 (PI3K β (p110β/p85α); Table 4 (PI3K α inhibitors)) [µM] | IC50 (PI3K δ; Table 4 (PI3K α inhibitors)) [µM] | SMILES | IC50 (PI3K α (p110α/p85α)) [µM]
24 | > 10 | > 10 | > 10 |  |  |  |  | Nc1nc2cc(-c3ccc4ncn(C5CCOCC5)c4c3)ccc2o1 [Compound 48] | < 10
25 | < 10 | > 10 | < 1 |  |  |  |  | Nc1nc2cc(-c3ccc4ncc(N5CCOCC5)n4n3)ccc2o1 [Compound 57] | < 1
26 | < 0.1 | < 1 | < 0.1 |  |  |  |  | Nc1nc2cc(-c3ccc4ncc(-c5cn[nH]c5)n4n3)ccc2o1 [Compound 59] | < 0.1
27 | > 10 | > 10 | > 10 |  |  |  |  | Nc1nc2cc(-c3cnc4ncc(-c5ccncc5)n4c3)ccc2o1 [Compound 61] | > 10
28 | > 10 | > 10 |  |  |  |  |  | CC(=O)N1CCC(n2cnc3ccc(-c4ccc5oc(N)nc5c4)cc3c2=O)CC1 [Compound 66] | < 10
29 | > 10 | > 10 |  |  |  |  |  | CS(=O)(=O)N1CCC(n2cnc3ccc(-c4ccc5oc(N)nc5c4)cc3c2=O)CC1 [Compound 67] | < 1
30 | < 1 | < 10 | < 10 |  |  |  |  | Nc1nc2cc(-c3cn4c(-c5ccncc5)cnc4cn3)ccc2o1 [Compound 68] | < 0.1
31 | < 1 | < 10 | < 10 |  |  |  |  | Nc1nc2cc(-c3cn4c(-c5cn[nH]c5)cnc4cn3)ccc2o1 [Compound 69] | < 1
32 | < 0.1 | < 0.1 | < 0.1 |  |  |  |  | Nc1nc2cc(-c3ccc4nccc(-c5ccncc5)c4c3)ccc2s1 [Compound 70] | < 0.1
33 | < 0.1 | < 1 | < 10 |  |  |  |  | Nc1nc2cc(-c3ccc4ncc(-c5ccncc5)nc4c3)ccc2o1 [Compound 71] | < 0.1
34 | > 10 | > 10 | < 10 |  |  |  |  | CCN1CCC(n2cnc3ccc(-c4ccc5oc(N)nc5c4)cc3c2=O)CC1 [Compound 73] | < 1
35 | > 10 | > 10 | > 10 |  |  |  |  | CN1CCN(c2nc3cc(-c4ccc5oc(N)nc5c4)ccc3c(=O)n2C)CC1 [Compound 79] | < 10
36 | > 10 | > 10 | > 10 |  |  |  |  | Cn1c(N2CCOCC2)nc2cc(-c3ccc4oc(N)nc4c3)ccc2c1=O [Compound 80] | < 1
37 | < 10 |  | < 1 |  |  |  |  | CN1CCN([C@H]2CCN(c3cnc4ccc(-c5ccc6oc(N)nc6c5)cc4n3)C2)CC1 [Compound 381] | < 0.1
38 | < 1 |  | < 10 |  |  |  |  | Nc1nc2cc(-c3ccc4ncc(C(=O)N5CC(N6CC[C@@H](O)C6)C5)n4c3)ccc2o1 [Compound 470] | < 0.1
39 | < 10 | < 10 | < 10 |  |  |  |  | O=C(c1cnc2ccc(-c3cnc4[nH]ncc4c3)cn12)N1CCOCC1 [Compound 492] | 

Row | IC50 (PI3K γ (p110γ)) [µM] | IC50 (PI3K δ) [µM] | IC50 (PI3K β (p110β/p85α)) [µM] | IC50 (PI3K γ (p110γ); Table 4 (PI3K α inhibitors)) [µM] | IC50 (PI3K α (p110α/p85α); Table 4 (PI3K α inhibitors)) [µM] | IC50 (PI3K β (p110β/p85α); Table 4 (PI3K α inhibitors)) [µM] | IC50 (PI3K δ; Table 4 (PI3K α inhibitors)) [µM] | SMILES | IC50 (PI3K α (p110α/p85α)) [µM]
40 | > 10 |  | > 10 |  |  |  |  | Cc1ncc(-c2ccc3ncc(C(=O)N4CCOCC4)n3c2)c2cn[nH]c12 [Compound 530] | < 0.1
41 | > 10 | > 10 | > 10 |  |  |  |  | O=C(c1cnc2ccc(-c3ccnc4[nH]ncc34)cn12)N1CCOCC1 [Compound 532] | 
42 | > 10 | > 10 | > 10 |  |  |  |  | O=C(c1cnc2ccc(-c3cnc4cc[nH]c4c3)cn12)N1CCOCC1 [Compound 534] | 
43 | > 10 | > 10 | > 10 |  |  |  |  | Cc1ncc(-c2ccc3ncc(C(=O)N4CCOCC4)n3c2)c2cc[nH]c12 [Compound 536] | 
44 |  |  |  | < 1 | < 0.1 | > 10 |  | CS(=O)(=O)N1CCN(C2CN(c3cnc4ccc(-c5ccc6oc(N)nc6c5)nc4n3)C2)CC1 [Compound 559] | 
45 |  |  |  | < 0.1 | < 0.1 |  | > 10 | Nc1nc2cc(-c3ccc4ncc(C5=CCOCC5)nc4n3)ccc2o1 [Compound 562] | 
46 |  |  |  | < 0.1 | < 0.1 |  | > 10 | C[C@H]1COCCN1c1cnc2ccc(-c3ccc4oc(N)nc4c3)nc2n1 [Compound 566] | 
47 |  |  |  | < 1 | < 0.1 | < 0.1 |  | CN1CCN(c2cnc3ccc(-c4ccc5oc(N)nc5c4)nc3c2)CC1 [Compound 575] | 
48 |  |  |  | < 1 | < 1 | > 10 |  | CCN(CC)c1cnc2ccc(-c3ccc4oc(N)nc4c3)nc2n1 [Compound 577] | 
49 |  |  |  | < 1 | < 0.1 | < 0.1 |  | C[C@@H]1CN(c2cnc3ccc(-c4ccc5oc(N)nc5c4)nc3n2)CCN1 [Compound 578] | 
50 |  |  |  | < 1 | < 0.1 | < 1 |  | CC(C)N1CCN(c2cnc3ccc(-c4ccc5oc(N)nc5c4)nc3n2)CC1 [Compound 583] | 
51 |  |  |  | < 0.1 | < 0.1 |  | > 10 | CCOC(=O)N1CCN(c2cnc3ccc(-c4ccc5oc(N)nc5c4)nc3c2)CC1 [Compound 587] | 
52 |  |  |  | < 0.1 | < 0.1 |  | > 10 | Nc1nc2cc(-c3ccc4ncc(N5CCC(O)CC5)nc4n3)ccc2o1 [Compound 596] | 
53 |  |  |  | < 1 | < 0.1 |  | < 1 | C[C@@H]1CN(C2CN(c3cnc4ccc(-c5ccc6oc(N)nc6c5)nc4c3)C2)CCN1 [Compound 607] | 
54 |  |  |  | < 0.1 | < 0.1 |  | < 1 | C[C@@H]1COCCN1C1CN(c2cnc3ccc(-c4ccc5oc(N)nc5c4)nc3c2)C1 [Compound 617] | 
